# Test results taken from ChEMBL document CHEMBL3797079, “Synergistic reduction of HIV-1 infectivity by 5-azacytidine and inhibitors of ribonucleotide reductase” (Bioorg Med Chem, 2016).
# The source made the active and inactive calls. No cut-off for these calls is given here.
# Assays:
# [1] = system: Human immunodeficiency virus 1; assay: Antiviral activity against VSV-G pseudotyped HIV-1 NL4-3 infected in human U373-MAGI cells assessed as Gag mutation at 3.8 uM incubated for 2 hrs prior to infection measured at 72 hrs post infection by illumina sequencing method (reference value: 18.4%); assay type: functional
# [2] = system: Human immunodeficiency virus 1; assay: Antiviral activity against VSV-G pseudotyped HIV-1 NL4-3 infected in human U373-MAGI cells assessed as reduction in U5-gag level at 0.25 to 8 uM after 2 to 72 hrs by qPCR method; assay type: functional, organism-based
# [3] = system: Human immunodeficiency virus 1; assay: Antiviral activity against VSV-G pseudotyped HIV-1 NL4-3 infected in human U373-MAGI cells assessed as Env mutation at 3.8 uM incubated for 2 hrs prior to infection measured at 72 hrs post infection by illumina sequencing method (reference value: 21.4%); assay type: functional
# [4] = system: Human immunodeficiency virus 1; assay: Antiviral activity against VSV-G pseudotyped HIV-1 NL4-3 infected in human U373-MAGI cells assessed as Vif mutation at 3.8 uM incubated for 2 hrs prior to infection measured at 72 hrs post infection by illumina sequencing method (reference value: 19.2%); assay type: functional
# [5] = system: Human immunodeficiency virus 1; assay: Antiviral activity against VSV-G pseudotyped HIV-1 NL4-3 infected in human U373-MAGI cells assessed as Nef mutation at 3.8 uM incubated for 2 hrs prior to infection measured at 72 hrs post infection by illumina sequencing method (reference value: 22.6%); assay type: functional
# [6] = system: Human immunodeficiency virus 1; assay: Antiviral activity against VSV-G pseudotyped HIV-1 NL4-3 infected in human U373-MAGI cells assessed as Pol mutation at 3.8 uM incubated for 2 hrs prior to infection measured at 72 hrs post infection by illumina sequencing method (reference value: 18.5%); assay type: functional
# [7] = Reduction in dCTP level in human U373-MAGI cells at EC75 after 4 hrs by LC-MS/MS analysis relative to control; assay type: functional; set-up: scale not given: the % may be the effect or the level left
# [8] = system: Human immunodeficiency virus 1; assay: Antiviral activity against VSV-G pseudotyped HIV-1 NL4-3 infected in human U373-MAGI cells assessed as reduction in gag level at 0.25 to 8 uM after 2 to 72 hrs by qPCR method; assay type: functional, organism-based
# [9] = system: Human immunodeficiency virus 1; assay: Antiviral activity against VSV-G pseudotyped HIV-1 NL4-3 infected in human U373-MAGI cells assessed as Pol mutation at 260 uM incubated for 2 hrs prior to infection measured at 72 hrs post infection by illumina sequencing method (reference value: 18.5%); assay type: functional
# [10] = system: Human immunodeficiency virus 1; assay: Antiviral activity against VSV-G pseudotyped HIV-1 NL4-3 infected in human U373-MAGI cells assessed as C to G transversion at 260 uM incubated for 2 hrs prior to infection measured at 72 hrs post infection by illumina sequencing method relative to control; assay type: functional
# [11] = system: Human immunodeficiency virus 1; assay: Antiviral activity against VSV-G pseudotyped HIV-1 NL4-3 infected in human U373-MAGI cells assessed as Nef mutation at 260 uM incubated for 2 hrs prior to infection measured at 72 hrs post infection by illumina sequencing method (reference value: 22.6%); assay type: functional
# [12] = system: Human immunodeficiency virus 1; assay: Antiviral activity against VSV-G pseudotyped HIV-1 NL4-3 infected in human U373-MAGI cells assessed as Vif mutation at 260 uM incubated for 2 hrs prior to infection measured at 72 hrs post infection by illumina sequencing method (reference value: 19.2%); assay type: functional
# [13] = system: Human immunodeficiency virus 1; assay: Antiviral activity against VSV-G pseudotyped HIV-1 NL4-3 infected in human U373-MAGI cells assessed as reduction in gag level at 25 to 400 uM after 2 to 72 hrs by qPCR method; assay type: functional, organism-based
# [14] = system: Human immunodeficiency virus 1; assay: Antiviral activity against VSV-G pseudotyped HIV-1 NL4-3 infected in human U373-MAGI cells assessed as reduction in U5-gag level at 25 to 400 uM after 2 to 72 hrs by qPCR method; assay type: functional, organism-based
# [15] = system: Human immunodeficiency virus 1; assay: Antiviral activity against VSV-G pseudotyped HIV-1 NL4-3 infected in human U373-MAGI cells assessed as Env mutation at 260 uM incubated for 2 hrs prior to infection measured at 72 hrs post infection by illumina sequencing method (reference value: 21.4%); assay type: functional
# [16] = system: Human immunodeficiency virus 1; assay: Antiviral activity against VSV-G pseudotyped HIV-1 NL4-3 infected in human U373-MAGI cells assessed as G to C transversion at 260 uM incubated for 2 hrs prior to infection measured at 72 hrs post infection by illumina sequencing method relative to control; assay type: functional
# [17] = system: Human immunodeficiency virus 1; assay: Antiviral activity against VSV-G pseudotyped HIV-1 NL4-3 infected in human U373-MAGI cells assessed as increase in frequency of C to G transversion at 260 uM incubated for 2 hrs prior to infection measured at 72 hrs post infection by illumina sequencing method relative to control; assay type: functional
# [18] = system: Human immunodeficiency virus 1; assay: Antiviral activity against VSV-G pseudotyped HIV-1 NL4-3 infected in human U373-MAGI cells assessed as Gag mutation at 260 uM incubated for 2 hrs prior to infection measured at 72 hrs post infection by illumina sequencing method (reference value: 18.4%); assay type: functional
# [19] = system: Human immunodeficiency virus 1; assay: Antiviral activity against VSV-G pseudotyped HIV-1 NL4-3 infected in human U373-MAGI cells assessed as increase in frequency of G to C transversion at 260 uM incubated for 2 hrs prior to infection measured at 72 hrs post infection by illumina sequencing method relative to control; assay type: functional
# [20] = system: Human immunodeficiency virus 1; assay: Antiviral activity against VSV-G pseudotyped HIV-1 NL4-3 infected in human U373-MAGI cells assessed as increase in mutation frequency at 260 uM incubated for 2 hrs prior to infection measured at 72 hrs post infection by illumina sequencing method; assay type: functional
# [21] = system: U373-MAGI; assay: Reduction in dRGU-TP level in human U373-MAGI cells at 2 mM preincubated for 2 hrs followed by 5-aza-C addition measured after 4 hrs by LC-MS/MS analysis; assay type: functional, cell-based
# [22] = system: U373-MAGI; assay: Reduction in dTTP level in human U373-MAGI cells at 0.5 mM after 6 hrs by LC-MS/MS analysis; assay type: functional, cell-based
# [23] = system: U373-MAGI; assay: Reduction in dCTP level in human U373-MAGI cells at 2 mM preincubated for 2 hrs followed by 5-aza-C addition measured after 4 hrs by LC-MS/MS analysis relative to 5-aza-C; assay type: functional, cell-based
# [24] = system: U373-MAGI; assay: Increase in 5-aza-dCTP/dCTP ratio in human U373-MAGI cells at 2 mM preincubated for 2 hrs followed by 5-aza-dC addition measured after 4 hrs by LC-MS/MS analysis relative to 5-aza-dC; assay type: functional, cell-based
# [25] = system: U373-MAGI; assay: Increase in 5-aza-dCTP/dCTP ratio in human U373-MAGI cells at 2 mM preincubated for 2 hrs followed by 5-aza-C addition measured after 4 hrs by LC-MS/MS analysis relative to 5-aza-C; assay type: functional, cell-based
# [26] = system: U373-MAGI; assay: Reduction in dGTP level in human U373-MAGI cells at 0.5 mM after 6 hrs by LC-MS/MS analysis; assay type: functional, cell-based
# [27] = system: U373-MAGI; assay: Reduction in dCTP level in human U373-MAGI cells at 0.5 mM preincubated for 2 hrs followed by 5-aza-C addition measured after 4 hrs by LC-MS/MS analysis; assay type: functional, cell-based
# [28] = system: U373-MAGI; assay: Effect on dRGU-TP level in human U373-MAGI cells at 0.5 mM preincubated for 2 hrs followed by 5-aza-dC addition measured after 4 hrs by LC-MS/MS analysis; assay type: functional, cell-based
# [29] = system: Human immunodeficiency virus 1; assay: Antiviral activity against VSV-G pseudotyped HIV-1 NL4-3 infected in human U373-MAGI cells assessed as reduction in viral infectivity at 500 uM incubated for 4 hrs prior to viral infection measured at 72 hrs post infection by flow cytometric analysis; assay type: functional, organism-based
# [30] = system: U373-MAGI; assay: Reduction in dCTP level in human U373-MAGI cells at 0.5 mM preincubated for 2 hrs followed by 5-aza-dC addition measured after 4 hrs by LC-MS/MS analysis relative to 5-aza-dC; assay type: functional, cell-based
# [31] = system: U373-MAGI; assay: Effect on 5-aza-dCTP level in human U373-MAGI cells at 0.5 mM preincubated for 2 hrs followed by 5-aza-dC addition measured after 4 hrs by LC-MS/MS analysis; assay type: functional, cell-based
# [32] = system: Human immunodeficiency virus 1; assay: Potentiation of 5-Aza-C-induced antiviral activity against VSV-G pseudotyped HIV-1 NL4-3 infected in human U373-MAGI cells assessed as decrease in 5-Aza-C EC50 at 500 uM preincubated for 2 hrs followed by 5-Aza-C addition for 2 hrs and subsequent viral infection measured at 72 hrs post infection by flow cytometric analysis relative to control; assay type: functional
# [33] = Cytotoxicity against human U373-MAGI cells at 500 uM measured at 72 hrs by Celltiter-Glo luminescent cell viability assay; assay type: cell-based
# [34] = system: U373-MAGI; assay: Increase in 5-aza-dCTP/dCTP ratio in human U373-MAGI cells at 0.5 mM preincubated for 2 hrs followed by 5-aza-C addition measured after 4 hrs by LC-MS/MS analysis relative to 5-aza-C; assay type: functional, cell-based
# [35] = system: U373-MAGI; assay: Reduction in dCTP level in human U373-MAGI cells at 2 mM preincubated for 2 hrs followed by 5-aza-dC addition measured after 4 hrs by LC-MS/MS analysis relative to 5-aza-dC; assay type: functional, cell-based
# [36] = system: U373-MAGI; assay: Reduction in dATP level in human U373-MAGI cells at 2 mM after 6 hrs by LC-MS/MS analysis; assay type: functional, cell-based
# [37] = system: U373-MAGI; assay: Reduction in dATP level in human U373-MAGI cells at 0.5 mM after 6 hrs by LC-MS/MS analysis; assay type: functional, cell-based
# [38] = system: U373-MAGI; assay: Reduction in 5-aza-dCTP level in human U373-MAGI cells at 2 mM preincubated for 2 hrs followed by 5-aza-C addition measured after 4 hrs by LC-MS/MS analysis; assay type: functional, cell-based
# [39] = system: U373-MAGI; assay: Reduction in dRGU-TP level in human U373-MAGI cells at 0.5 mM preincubated for 2 hrs followed by 5-aza-C addition measured after 4 hrs by LC-MS/MS analysis; assay type: functional, cell-based
# [40] = system: U373-MAGI; assay: Increase in 5-aza-dCTP/dCTP ratio in human U373-MAGI cells at 0.5 mM preincubated for 2 hrs followed by 5-aza-dC addition measured after 4 hrs by LC-MS/MS analysis relative to 5-aza-dC; assay type: functional, cell-based
# [41] = system: U373-MAGI; assay: Effect on dRGU-TP level in human U373-MAGI cells at 2 mM preincubated for 2 hrs followed by 5-aza-dC addition measured after 4 hrs by LC-MS/MS analysis; assay type: functional, cell-based
# [42] = system: U373-MAGI; assay: Reduction in dCTP level in human U373-MAGI cells at 0.5 mM after 6 hrs by LC-MS/MS analysis; assay type: functional, cell-based
# [43] = system: U373-MAGI; assay: Reduction in dCTP level in human U373-MAGI cells at 2 mM after 6 hrs by LC-MS/MS analysis; assay type: functional, cell-based
# [44] = system: U373-MAGI; assay: Reduction in 5-aza-dCTP level in human U373-MAGI cells at 0.5 mM preincubated for 2 hrs followed by 5-aza-C addition measured after 4 hrs by LC-MS/MS analysis; assay type: functional, cell-based
# [45] = system: U373-MAGI; assay: Reduction in dGTP level in human U373-MAGI cells at 2 mM after 6 hrs by LC-MS/MS analysis; assay type: functional, cell-based
# [46] = system: U373-MAGI; assay: Effect on 5-aza-dCTP level in human U373-MAGI cells at 2 mM preincubated for 2 hrs followed by 5-aza-dC addition measured after 4 hrs by LC-MS/MS analysis; assay type: functional, cell-based
# [47] = system: U373-MAGI; assay: Reduction in dTTP level in human U373-MAGI cells at 2 mM after 6 hrs by LC-MS/MS analysis; assay type: functional, cell-based
compound,measurement,setting,value
Nc1ncn([C@H]2C[C@H](O)[C@@H](CO)O2)c(=O)n1 [DECITABINE],Activity,[1],16%
same,Activity,[2],Active
same,Activity,[3],20.5%
same,Activity,[4],15.9%
same,Activity,[5],21.5%
same,Activity,[6],26%
same,Activity,[7],50%
same,Activity,[8],Active
Nc1ncn([C@@H]2O[C@H](CO)[C@@H](O)[C@H]2O)c(=O)n1 [AZACITIDINE],Activity,[9],25.8%
same,Activity,[10],10%
same,Activity,[11],25.4%
same,Activity,[12],12.8%
same,Activity,[13],Active
same,Activity,[14],Active
same,Activity,[15],19.1%
same,Activity,[16],60%
same,Activity,[7],50%
same,fold change (FC),[17],43
same,Activity,[18],17%
same,fold change (FC),[19],67
same,fold change (FC),[20],6.8
NC(=O)NO [HYDROXYUREA],Activity,[21],inactive
same,Activity,[22],inactive
same,Activity,[23],Active
same,Activity,[24],Active
same,Activity,[25],inactive
same,Activity,[26],inactive
same,Activity,[27],Active
same,Activity,[28],inactive
same,Activity,[29],Active
same,Activity,[30],Active
same,Activity,[31],inactive
same,fold change (FC),[32],2.5
same,Activity,[33],Non-toxic
same,Activity,[34],Active
same,Activity,[35],Active
same,Activity,[36],Active
same,Activity,[37],inactive
same,Activity,[38],inactive
same,Activity,[39],inactive
same,Activity,[40],Active
same,Activity,[41],inactive
same,Activity,[42],inactive
same,Activity,[43],inactive
same,Activity,[44],inactive
same,Activity,[45],inactive
same,Activity,[46],inactive
same,Activity,[47],inactive
